In patent US20050101595A1, “N-containing cycloalkyl-substituted amino-thiazole derivatives and pharmaceutical compositions for inhibiting cell proliferation and methods for their use” (PFIZER INC., priority 2003, published 2005):

Key:
CDK2/Cyclin A = CDK2/Cyclin A (Homo sapiens, UniProt P24941); assay: Inhibition of CDK2/Cyclin A Retinoblastoma Kinase Activity; format: biochemical; details: at 0.03 μM
How it was run: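 Radiometric filter-binding readout of phosphate transfer to an Rb substrate fragment by purified CDK2/truncated cyclin A at 10 or 19 nM. Run at pH 7.4 with 25 μM ATP, 30 °C, 60–75 min, linear rates; background without enzyme subtracted, Ki from competitive-inhibition models.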

[1] = biological target: human CDK4 and genetically truncated (1-264) cyclin D3 (Homo sapiens, UniProt P11802); assay: Inhibition of CDK4/Cyclin D Retinoblastoma Kinase Activity; format: biochemical; details: at 0.03 μM
Chain of human CDK4 and genetically truncated (1-264) cyclin D3 (P11802 whole entry, the tested form may be a part): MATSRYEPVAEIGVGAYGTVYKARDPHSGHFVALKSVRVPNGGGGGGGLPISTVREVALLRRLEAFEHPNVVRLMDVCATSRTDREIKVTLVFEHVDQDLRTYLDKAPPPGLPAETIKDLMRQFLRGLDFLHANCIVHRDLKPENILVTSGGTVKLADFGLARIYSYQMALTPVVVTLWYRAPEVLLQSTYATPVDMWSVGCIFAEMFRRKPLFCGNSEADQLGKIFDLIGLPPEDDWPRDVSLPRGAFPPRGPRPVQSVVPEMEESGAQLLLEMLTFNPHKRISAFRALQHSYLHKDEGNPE
Chain of human CDK4 and genetically truncated (1-264) cyclin D3 (P30281 1-264 partner): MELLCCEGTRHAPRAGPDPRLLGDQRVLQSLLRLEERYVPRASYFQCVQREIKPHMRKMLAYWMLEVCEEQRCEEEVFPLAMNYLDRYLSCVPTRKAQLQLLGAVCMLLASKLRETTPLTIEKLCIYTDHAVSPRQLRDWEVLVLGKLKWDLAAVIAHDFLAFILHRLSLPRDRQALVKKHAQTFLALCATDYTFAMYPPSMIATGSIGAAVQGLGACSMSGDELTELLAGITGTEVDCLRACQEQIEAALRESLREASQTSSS
How it was run: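 Apparent Ki values come from competitive or competitive tight-binding inhibition fits of background-corrected 32P/33P incorporation into His-tagged Rb fragment (386-928), captured on nitrocellulose. Reaction: 5 nM insect-cell-expressed human CDK4 with cyclin D3 (1-264), 25 μM ATP, pH 7.4 HEPES, 2% DMSO, 30° C., 20 min, extended to 60 min for tight-binding inhibitors.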

HCT-116 cell line = assay: Inhibition of cell growth, tetrazolium salt (MTT) assay; format: cell-based; details: HCT-116 cells
How it was run: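 Cells in McCoy's 5A medium were left 4 h, then given graded compound concentrations in 0.5% (v/v) DMSO and incubated three to five days at 37° C (5% CO2). MTT was added to 0.2 mg/mL for 4 h more; DMSO-solubilized formazan was read at 540 nm against 0.5% DMSO-only controls.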

| Compound | CDK2 % Inhibition at 0.03 μM (CDK2/Cyclin A) [%] | CDK4 % Inhibition at 0.03 μM [1] [%] | HCT-116 % Inhibition at 0.1 μM (HCT-116 cell line) [%] | HCT-116 5 Inhibition at 0.25 μM (HCT-116 cell line) |
| --- | --- | --- | --- | --- |
| CC(=O)Nc1ccccc1C(=O)N1CCC(Nc2nc(N)c(C(=O)c3c(F)cccc3F)s2)CC1 [Example R111] | 11 | 25 | 4 | 52 |
| CNc1ccccc1C(=O)N1CCC(Nc2nc(N)c(C(=O)c3c(F)cccc3F)s2)CC1 [Example R112] | 12 | 21 | 39 | 93 |
| CC(=O)Oc1ccccc1C(=O)N1CCC(Nc2nc(N)c(C(=O)c3c(F)cccc3F)s2)CC1 [Example R113] | 44 | 48 | 0 | 40 |
| COc1ccccc1C(=O)N1CCC(Nc2nc(N)c(C(=O)c3c(F)cccc3F)s2)CC1 [Example R114] | 60 | 65 | 0 | 42 |
| COc1cccc(C(=O)N2CCC(Nc3nc(N)c(C(=O)c4c(F)cccc4F)s3)CC2)c1OC [Example R115] | 42 | 58 | 0 | 49 |
| COc1ccc(C(=O)N2CCC(Nc3nc(N)c(C(=O)c4c(F)cccc4F)s3)CC2)c(OC)c1 [Example R116] | 49 | 67 | 9 | 44 |
| COc1ccc(OC)c(C(=O)N2CCC(Nc3nc(N)c(C(=O)c4c(F)cccc4F)s3)CC2)c1 [Example R117] | 53 | 66 | 7 | 45 |
| COc1cccc(OC)c1C(=O)N1CCC(Nc2nc(N)c(C(=O)c3c(F)cccc3F)s2)CC1 [Example R118] | 36 | 33 | 7 | 47 |
| CCOc1ccccc1C(=O)N1CCC(Nc2nc(N)c(C(=O)c3c(F)cccc3F)s2)CC1 [Example R119] | 27 | 31 | 3 | 53 |
| Nc1nc(NC2CCN(C(=O)c3cc(Cl)ccc3O)CC2)sc1C(=O)c1c(F)cccc1F [Example R120] | 18 | 4 | 0 | 47 |
| COc1ccc(O)c(C(=O)N2CCC(Nc3nc(N)c(C(=O)c4c(F)cccc4F)s3)CC2)c1 [Example R121] | 57 | 60 | 0 | 37 |
| Cc1ccc(O)c(C(=O)N2CCC(Nc3nc(N)c(C(=O)c4c(F)cccc4F)s3)CC2)c1 [Example R122] | 61 | 67 | 0 | 48 |
| Nc1nc(NC2CCN(C(=O)c3ccccc3-c3ccccc3)CC2)sc1C(=O)c1c(F)cccc1F [Example R123] | 5 | 39 | 0 | 38 |
| Nc1nc(NC2CCN(C(=O)c3ccccc3C(F)(F)F)CC2)sc1C(=O)c1c(F)cccc1F [Example R124] | 18 | 38 | 0 | 35 |
| Cc1cccc(C(=O)N2CCC(Nc3nc(N)c(C(=O)c4c(F)cccc4F)s3)CC2)c1C [Example R125] | 18 | 33 | 0 | 42 |
